Measured values published in ChEMBL document CHEMBL4130453, “Discovery of an Isothiazole-Based Phenylpropanoic Acid GPR120 Agonist as a Development Candidate for Type 2 Diabetes” (ACS Med Chem Lett, 2017).
≈ marks a conversion by molar mass, not a printed value. Blank lines part the entries; values can stand above or below the compound they belong to.

Key:
[1] = biological target: Free fatty acid receptor 4 (Homo sapiens, UniProt Q5NUL3); test: Agonist activity at human GPR120 short splice variant expressed in HEK293 cells assessed as increase in intracellular calcium flux incubated for 30 mins measured for 300 secs at 1 sec interval by Fluo-4 NW dye based FLIPR assay; type: functional, cell-based
[2] = Metabolic stability in human liver microsomes assessed as parent compound remaining measured at 10 mins; type: ADME, microsome; conditions: read-out: Stability
[3] = Metabolic stability in mouse liver microsomes assessed as parent compound remaining measured at 10 mins; type: ADME, microsome; conditions: liver microsomes, read-out: Stability
[4] = Metabolic stability in rat liver microsomes assessed as parent compound remaining measured at 10 mins; type: ADME, microsome; conditions: liver microsomes, read-out: Stability
[5] = biological target: T1, Free fatty acid receptor 4 (Mus musculus, UniProt Q7TMA4); test: Agonist activity at mouse GPR120 by calcium flux assay; type: functional
T1 sequence (Q7TMA4 whole entry): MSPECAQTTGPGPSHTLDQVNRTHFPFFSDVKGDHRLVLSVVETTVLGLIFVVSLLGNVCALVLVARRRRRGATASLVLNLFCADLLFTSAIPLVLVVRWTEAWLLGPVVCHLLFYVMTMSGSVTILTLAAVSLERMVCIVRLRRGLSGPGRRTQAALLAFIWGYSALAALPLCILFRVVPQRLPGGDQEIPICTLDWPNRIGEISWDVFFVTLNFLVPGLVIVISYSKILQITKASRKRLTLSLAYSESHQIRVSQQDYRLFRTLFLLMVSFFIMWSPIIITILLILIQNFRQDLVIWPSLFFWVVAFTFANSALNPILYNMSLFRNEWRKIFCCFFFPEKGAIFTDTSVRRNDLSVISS

[6] = biological target: Free fatty acid receptor 1 (Homo sapiens, UniProt O14842); test: Agonist activity at human GPR40 by calcium flux assay; type: functional
Sequence of Free fatty acid receptor 1 (O14842 whole entry): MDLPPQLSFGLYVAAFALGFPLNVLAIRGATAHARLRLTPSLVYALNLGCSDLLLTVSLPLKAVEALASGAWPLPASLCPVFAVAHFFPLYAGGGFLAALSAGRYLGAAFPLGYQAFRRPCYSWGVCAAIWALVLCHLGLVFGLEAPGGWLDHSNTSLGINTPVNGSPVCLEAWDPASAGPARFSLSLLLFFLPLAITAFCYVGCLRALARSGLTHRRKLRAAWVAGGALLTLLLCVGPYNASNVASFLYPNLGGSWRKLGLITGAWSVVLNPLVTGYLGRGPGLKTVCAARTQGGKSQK

Mus musculus [7] = test: Antidiabetic activity in diet-induced obese C57BL/6 mouse assessed as reduction in plasma glucose delta AUC level at 1 mg/kg, po administered 30 mins prior to glucose challenge measured 90 mins post glucose challenge by OGTT relative to control; type: functional; design: scale not given: the % may be the effect or the level left
Mus musculus [8] = test: Antidiabetic activity in diet-induced obese C57BL/6 mouse assessed as reduction in plasma glucose delta AUC level at 3 mg/kg, po administered 30 mins prior to glucose challenge measured 90 mins post glucose challenge by OGTT relative to control; type: functional; design: scale not given: the % may be the effect or the level left
Mus musculus [9] = test: Antidiabetic activity in diet-induced obese C57BL/6 mouse assessed as reduction in plasma glucose delta AUC level administered orally 30 mins prior to glucose challenge measured 90 mins post glucose challenge by OGTT; type: functional, organism-based
Mus musculus [10] = test: Antidiabetic activity in diet-induced obese C57BL/6 mouse harboring wild type GPR120 assessed as reduction in plasma glucose delta AUC level at 60 mg/kg, po qd administered 30 mins prior to glucose challenge measured 90 mins post glucose challenge for 3 weeks; type: functional; design: scale not given: the % may be the effect or the level left
Mus musculus [11] = test: Antidiabetic activity in diet-induced obese C57BL/6 mouse assessed as reduction in plasma glucose delta AUC level at 0.3 mg/kg, po administered 30 mins prior to glucose challenge measured 90 mins post glucose challenge by OGTT relative to control; type: functional; design: scale not given: the % may be the effect or the level left
Mus musculus [12] = test: Antidiabetic activity in diet-induced obese C57BL/6 mouse assessed as reduction in plasma glucose delta AUC level at 0.1 mg/kg, po administered 30 mins prior to glucose challenge measured 90 mins post glucose challenge by OGTT relative to control; type: functional; design: scale not given: the % may be the effect or the level left
Mus musculus [13] = test: Antidiabetic activity in GPR120 knockout diet-induced obese C57BL/6 mouse assessed as reduction in plasma glucose delta AUC level at 60 mg/kg, po qd administered 30 mins prior to glucose challenge measured 90 mins post glucose challenge for 3 weeks; type: functional; design: scale not given: the % may be the effect or the level left
[14] = Inhibition of CYP450 (unknown origin) measured up to 10 uM; type: ADME; conditions: human
[15] = biological target: T2, PXR (nuclear receptor subfamily 1 group I member 2) (Homo sapiens, UniProt O75469); test: Activation of PXR (unknown origin) at 5 uM relative to control; conditions: read-out: Activity
T2 sequence (O75469 whole entry): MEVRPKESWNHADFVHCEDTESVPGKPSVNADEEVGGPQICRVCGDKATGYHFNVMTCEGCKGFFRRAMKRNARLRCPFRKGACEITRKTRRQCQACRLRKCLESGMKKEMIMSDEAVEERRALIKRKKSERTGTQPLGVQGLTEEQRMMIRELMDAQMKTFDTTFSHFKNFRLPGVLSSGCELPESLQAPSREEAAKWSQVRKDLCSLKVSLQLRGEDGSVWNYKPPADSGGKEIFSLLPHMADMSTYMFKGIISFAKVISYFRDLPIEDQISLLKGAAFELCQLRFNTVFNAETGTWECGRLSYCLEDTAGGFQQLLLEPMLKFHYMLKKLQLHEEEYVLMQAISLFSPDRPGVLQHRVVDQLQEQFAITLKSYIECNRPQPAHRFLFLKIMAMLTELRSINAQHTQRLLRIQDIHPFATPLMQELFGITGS

[16] = biological target: Voltage-gated inwardly rectifying potassium channel KCNH2 (Homo sapiens, UniProt Q12809); test: Inhibition of human ERG
Sequence of Voltage-gated inwardly rectifying potassium channel KCNH2 (Q12809 whole entry): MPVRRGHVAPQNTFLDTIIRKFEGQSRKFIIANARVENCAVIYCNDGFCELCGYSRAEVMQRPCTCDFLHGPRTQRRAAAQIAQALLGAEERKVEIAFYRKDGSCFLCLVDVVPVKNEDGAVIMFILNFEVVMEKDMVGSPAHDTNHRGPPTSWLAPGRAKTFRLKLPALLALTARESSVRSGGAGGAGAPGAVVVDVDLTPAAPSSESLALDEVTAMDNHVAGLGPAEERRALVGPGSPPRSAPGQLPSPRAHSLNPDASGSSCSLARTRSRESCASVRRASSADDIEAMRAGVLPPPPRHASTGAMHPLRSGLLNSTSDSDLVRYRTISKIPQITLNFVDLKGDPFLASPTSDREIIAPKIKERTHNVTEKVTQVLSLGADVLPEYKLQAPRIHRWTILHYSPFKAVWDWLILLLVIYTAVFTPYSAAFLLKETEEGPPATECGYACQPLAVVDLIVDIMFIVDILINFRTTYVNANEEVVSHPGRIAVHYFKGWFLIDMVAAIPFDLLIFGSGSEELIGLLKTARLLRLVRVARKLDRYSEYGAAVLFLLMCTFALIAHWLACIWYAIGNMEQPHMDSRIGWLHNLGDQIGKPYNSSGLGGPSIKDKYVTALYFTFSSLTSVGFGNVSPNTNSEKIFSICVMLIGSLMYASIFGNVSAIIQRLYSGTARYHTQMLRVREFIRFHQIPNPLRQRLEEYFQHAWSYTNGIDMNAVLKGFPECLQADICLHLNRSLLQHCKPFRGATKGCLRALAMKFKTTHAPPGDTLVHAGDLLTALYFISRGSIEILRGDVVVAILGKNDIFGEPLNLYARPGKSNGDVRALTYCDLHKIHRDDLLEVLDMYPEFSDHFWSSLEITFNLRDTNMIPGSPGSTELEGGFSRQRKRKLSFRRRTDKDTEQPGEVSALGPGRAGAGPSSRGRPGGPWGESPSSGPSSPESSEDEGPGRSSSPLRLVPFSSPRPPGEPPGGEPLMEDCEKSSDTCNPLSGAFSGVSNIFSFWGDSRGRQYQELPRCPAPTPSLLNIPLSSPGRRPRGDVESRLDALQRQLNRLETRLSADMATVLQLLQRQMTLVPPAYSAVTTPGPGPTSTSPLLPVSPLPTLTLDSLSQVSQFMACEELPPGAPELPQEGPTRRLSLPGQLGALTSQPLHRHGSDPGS

hERG (KCNH2) [17] = biological target: T3, hERG (KCNH2) (Homo sapiens, UniProt Q12809); test: Inhibition of human ERG at 3 uM by patch express assay relative to control
T3 sequence (Q12809 whole entry): as above

hERG (KCNH2) [18] = biological target: T3, hERG (KCNH2); test: Inhibition of human ERG at 10 uM by patch express assay relative to control
hERG (KCNH2) [19] = biological target: T3, hERG (KCNH2); test: Inhibition of human ERG at 30 uM by patch express assay relative to control
[20] = Protein binding in human plasma; type: ADME, cell-free; conditions: read-out: PPB (converted)
[21] = Protein binding in rat plasma; type: ADME, cell-free; conditions: read-out: PPB (converted)
[22] = Protein binding in mouse plasma; type: ADME, cell-free; conditions: read-out: PPB (converted)
[23] = Kinetic solubility of the compound in PBS; type: physicochemical; conditions: read-out: Kinetic_solubility
[24] = Apparent permeability from apical to basolateral side in MDCK cells; type: ADME, cell-based, Canis lupus familiaris; conditions: dog
[25] = Efflux ratio of apparent permeability from basolateral to apical side over apical to basolateral side in MDCK cells; type: ADME, cell-based, Canis lupus familiaris; conditions: dog
[26] = Oral bioavailability in SPF Sprague-Dawley rat at 10 mg/kg by LC-MS/MS analysis; type: ADME, organism-based; conditions: in vivo
[27] = Half life in SPF Sprague-Dawley rat at 10 mg/kg, po by LC-MS/MS analysis; type: ADME, organism-based; conditions: in vivo
[28] = Cmax in SPF Sprague-Dawley rat at 10 mg/kg, po by LC-MS/MS analysis; type: ADME, organism-based; design: dose 10 mg/kg, route oral; conditions: in vivo
[29] = AUClast in SPF Sprague-Dawley rat at 10 mg/kg, po by LC-MS/MS analysis; type: ADME, organism-based; design: dose 10 mg/kg, time 0 - last, route oral; conditions: in vivo
[30] = Cmax in DIO C57bl/6J mouse at 20 mg/kg, po administered via gavage by LC-MS/MS analysis; type: ADME, organism-based; design: dose 20 mg/kg, route oral; conditions: in vivo
[31] = AUClast in DIO C57bl/6J mouse at 20 mg/kg, po administered via gavage by LC-MS/MS analysis; type: ADME, organism-based; design: dose 20 mg/kg, route oral, time 0 - last; conditions: in vivo
[32] = Half life in DIO C57bl/6J mouse at 20 mg/kg, po administered via gavage by LC-MS/MS analysis; type: ADME, organism-based; conditions: in vivo
[33] = Ratio of drug uptake in DIO C57bl/6J mouse adipose tissue to plasma at 20 mg/kg, po administered via gavage; type: ADME, organism-based; conditions: adipose tissue and plasma
[34] = biological target: T4, Free fatty acid receptor 4 (Homo sapiens, UniProt Q5NUL3); test: Agonist activity at PK-tagged human GPR120 long isoform expressed in CHOK1 cells co-expressing EA-tagged beta-arrestin assessed as beta-gal enzyme complex formation after 90 mins by enzyme fragment complementation assay; type: cell-based
T4 sequence (Q5NUL3 whole entry): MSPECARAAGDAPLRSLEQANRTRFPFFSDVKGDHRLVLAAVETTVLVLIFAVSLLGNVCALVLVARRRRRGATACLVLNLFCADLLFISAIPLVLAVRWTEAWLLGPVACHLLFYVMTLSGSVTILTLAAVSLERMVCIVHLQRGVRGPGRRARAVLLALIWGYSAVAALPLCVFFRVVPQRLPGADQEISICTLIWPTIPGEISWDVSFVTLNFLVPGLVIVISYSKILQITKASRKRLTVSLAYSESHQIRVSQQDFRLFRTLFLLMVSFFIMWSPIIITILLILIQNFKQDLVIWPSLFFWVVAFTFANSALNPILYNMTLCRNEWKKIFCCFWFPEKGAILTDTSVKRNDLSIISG

EC50 [1]: 160 nM
Structure (SMILES): O=C(O)CCc1cc(F)c(OCc2c(-c3ccccc3)nsc2C(F)(F)F)c(F)c1

EC50 [1]: 173 nM
Structure (SMILES): O=C(O)CCc1c(F)c(F)c(OCc2c(-c3ccc(Cl)cc3)nsc2C(F)(F)F)c(F)c1F

EC50 [1]: 332 nM
Structure (SMILES): CCc1ccc(-c2nsc(C(F)(F)C(F)(F)F)c2COc2ccc(CCC(=O)O)c(C)c2C)cc1

EC50 [1]: 108 nM
Structure (SMILES): O=C(O)CCc1cc(F)c(OCc2c(-c3ccc(C(F)(F)F)cc3)nsc2C(F)(F)F)c(F)c1

EC50 [1]: 104 nM
Structure (SMILES): O=C(O)CCc1cc(F)c(OCc2c(-c3ccc(Cl)cc3)nsc2C(F)(F)F)c(F)c1F

EC50 [1]: 215 nM | remaining at 10 min [2]: 86% | remaining at 10 min [3]: 73% | remaining at 10 min [4]: 71%
Structure (SMILES): Cc1c(CCC(=O)O)ccc(OCc2csnc2-c2ccc(Cl)cc2)c1C

EC50 [1]: 25 nM | remaining at 10 min [2]: 87 to 100% | remaining at 10 min [3]: 87 to 100% | remaining at 10 min [4]: 87 to 100% | EC50 [5]: 102 nM | EC50 [6]: 3000 nM
Structure (SMILES): O=C(O)CCc1cc(F)c(OCc2c(-c3ccc(Cl)c(F)c3)nsc2C(F)(F)F)c(F)c1

EC50 [1]: 1640 nM
Structure (SMILES): CCc1ccc(-c2nsc(C(C)C)c2COc2ccc(CCC(=O)O)c(C)c2C)cc1

EC50 [1]: 202 nM
Structure (SMILES): CCc1cc(CCC(=O)O)ccc1OCc1c(-c2ccc(Cl)cc2)nsc1C(F)(F)F

EC50 [1]: 99 nM
Structure (SMILES): Cc1c(CCC(=O)O)cc(F)c(OCc2c(-c3ccc(Cl)cc3)nsc2C(F)(F)F)c1F

EC50 [1]: 42 nM | remaining at 10 min [2]: 87 to 100% | remaining at 10 min [3]: 87 to 100% | remaining at 10 min [4]: 87 to 100% | EC50 [5]: 77 nM | EC50 [6]: > 5000 nM | inhibition (INH) [14]: Not Active | activity at 5 µM [15]: 25.4% | fraction unbound [20]: 0.0013 | fraction unbound [21]: 0.0019 | fraction unbound [22]: 0.0032 | solubility kinetic [23]: 38.9 µM (≈ 19.3 µg/mL) | Papp A→B [24]: 17.5 ×10⁻⁶ cm/s | efflux ratio [25]: 1.05 | bioavailability [26]: 57.2% | half-life [27]: 0.98 h | Cmax [28]: 3560 ng/mL | AUC(0-t) [29]: 4470 ng·h/mL | Cmax [30]: 9270 ng/mL | AUC(0-t) [31]: 46800 ng·h/mL | half-life [32]: 5.23 h | Kp [33]: 0.08
Structure (SMILES): O=C(O)CCc1cc(F)c(OCc2c(-c3ccc(Cl)cc3F)nsc2C(F)(F)F)c(F)c1
Activity (Mus musculus [7]): 61% | Activity (Mus musculus [8]): 83% | Activity (Mus musculus [9]): Dose-dependent effect | Activity (Mus musculus [10]): 137% | Activity (Mus musculus [11]): 34% | Activity (Mus musculus [12]): 3% | Activity (Mus musculus [13]): 2% | IC50 [16]: > 50000 nM | inhibition at 3 µM (hERG (KCNH2) [17]): 5.9% | inhibition at 10 µM (hERG (KCNH2) [18]): 11.2% | inhibition at 30 µM (hERG (KCNH2) [19]): 12.5%

EC50 [1]: 94 nM | EC50 [34]: 105 nM
Structure (SMILES): Cc1c(CCC(=O)O)ccc(OCc2c(C(F)(F)F)nsc2-c2ccc(Cl)cc2)c1C

Structure (SMILES): N#C[C@@H]1C[C@@H]2C[C@@H]2N1C(=O)[C@@H](N)C12CC3CC(CC(O)(C3)C1)C2 [SAXAGLIPTIN ANHYDROUS]
Activity (Mus musculus [7]): 87%

EC50 [1]: 191 nM
Structure (SMILES): CCc1ccc(-c2sncc2COc2ccc(CCC(=O)O)c(C)c2C)cc1

EC50 [1]: 920 nM
Structure (SMILES): CCc1ccc(-c2nsc(OC)c2COc2ccc(CCC(=O)O)c(C)c2C)cc1
